In brackets after ≈: the same amount, converted by molar mass. Peptide text beside a SMILES is read from it.
How the values were obtained:
B. subtilis DSM 347 = assay type: cell-based; details: DSM 347, 18 h
Method: (§1) The minimal inhibitory concentration (MIC) of the cyclic hexapeptides was tested against Gram-negative E. coli DH5α and Gram-positive B. subtilis DSM 347 using a microdilution technique in 96 well microtiter plates as described previously. Briefly, cells from an overnight culture were inoculated 1:100 in LB medium, grown to mid log phase (OD600 0.4 ± 0.1) and adjusted to 5 × 10^5 cells/well. Final peptide concentrations ranged from 0.05 µM to 100 µM (2-fold dilutions) and were tested in triplicates in at least three independent experiments. The MIC was determined after 18 h of incubation at 37 °C, 180 rpm being the lowest peptide concentration at which no visible bacterial growth can be detected photometrically (A600, Safire Microplate Reader, Tecan, Männedorf, Germany).

E. coli DH5α = assay type: cell-based; details: 18 h
Method: as §1

human erythrocytes = assay type: cell-based; details: pH 7.4
Method: The lytic effect of selected peptides upon human erythrocytes was determined as described before. Briefly, cells were washed thoroughly in Tris buffer (10 mM Tris, 150 mM NaCl, pH 7.4). Suspensions with 2.5 × 10^8 cells/mL were incubated with peptides at a final concentration of 100 µM for 30 min at 37 °C. After centrifugation, 0.6% NH4OH was added to an aliquot of the supernatant and hemoglobin absorption (A) was measured at 540 nm (Jasco V-550). Whole cell suspensions exposed to NH4OH were used as positive control (A100%) and preparations without peptide served as negative control (A0%), respectively. Data were collected in three independent experiments.

[1] = Hydrophobicity: retention time tR by reversed phase HPLC; assay type: physicochemical; details: chromatographic, RP-HPLC ProntoSil 300-5-C18-H (250 × 4.6 mm, 5 µm); peptide 1 mg/mL in phase A (0.1% TFA in water); B 0.1% TFA in 80% acetonitrile; linear gradient 5%–95% B over 40 min at 22 °C; used as a measure of hydrophobicity
Method: The retention time tR of the cyclic hexapeptides was determined by HPLC on a Jasco LC-2000Plus using a ProntoSil 300-5-C18-H column (250 × 4.6 mm, 5 µm) (Bischoff Chromatography). Peptide concentration was 1 mg/mL in mobile phase A (0.1% TFA in deionized water), mobile phase B consisted of 0.1% TFA in 80% acetonitrile in deionized water. For chromatographic analyses a linear gradient of 5%–95% phase B over 40 min at 22 °C was applied.
To investigate the influence of fluorescent label modification and amino acid substitution on the hydrophobicity/amphipathicity of the cyclic hexapeptide derivatives, we determined the retention time tR by reversed phase HPLC (Figure 2). The method monitors the retention of compounds by the hydrophobic HPLC stationary phase. Differences in tR reflect differences in the effective hydrophobicity of the molecule which is related to the intrinsic hydrophobicity of the individual residues and their ability to form hydrophobic domains for interaction with the HPLC matrix. At the same time, hydrophilic residues will locate at the opposite side of the molecule. Reduction in the size or positioning of cationic residues next to the hydrophobic molecular surface area would reduce amphipathicity. tR-measurements have successfully been applied to characterize amphipathic helices, β-structured peptides and different sets of our small cyclic R-, W-rich peptides.

eukaryotic cells = tested on: eukaryotic cells; design: method as in PMID 15248771; details: cited from earlier work

- MIC B. subtilis DSM 347 (B. subtilis DSM 347): 3 µM (≈ 2.96 µg/mL)
- MIC E. coli DH5α (E. coli DH5α): 3 µM (≈ 2.96 µg/mL)
- Retention Time tR [1]: 17.67 min
Compound: N=C(N)NCCC[C@@H]1NC(=O)[C@H](CCCNC(=N)N)NC(=O)[C@H](Cc2c[nH]c3ccccc23)NC(=O)[C@H](Cc2ccccc2)NC(=O)[C@H](Cc2c[nH]c3ccccc23)NC(=O)[C@H](CCCNC(=N)N)NC1=O [cWFW] (cyclo(FWRRRW); ring closure inferred)
- Hemolysis at 100 µM (human erythrocytes): 4%
- Toxicity towards eukaryotic cells (eukaryotic cells): no toxicity towards eukaryotic cells could be detected

Reference: paper PMC3818835, “What Goes around Comes around-A Comparative Study of the Influence of Chemical Modifications on the Antimicrobial Properties of Small Cyclic Peptides” (Pharmaceuticals, 2013)
